# Values of other authors, collected in US20060051406A1, “Formulation of insoluble small molecule therapeutics in lipid-based carriers” (priority 2004, published 2006).
# Conditions: lipid transition temperature (gel to liquid crystalline phase)
row,Tm [°C],Compound
1,−22,"CCCCCCCC/C=C\CCCCCCCC(=O)OC[C@H](COP(=O)([O-])OCC[N+](C)(C)C)OC(=O)CCCCCCC/C=C\CCCCCCCC [Dioleoylphosphatidylcholine, 1,2-dioleoyl-sn-glycero-3-phosphocholine]"
2,23,CCCCCCCCCCCCCC(=O)OC[C@H](COP(=O)([O-])OCC[N+](C)(C)C)OC(=O)CCCCCCCCCCCCC [Dimyristoylphosphatidylcholine]
3,41,CCCCCCCCCCCCCCCC(=O)OC[C@H](COP(=O)([O-])OCC[N+](C)(C)C)OC(=O)CCCCCCCCCCCCCCC [Dipalmitoylphosphatidylcholine]
4,55,CCCCCCCCCCCCCCCCCC(=O)OC[C@H](COP(=O)([O-])OCC[N+](C)(C)C)OC(=O)CCCCCCCCCCCCCCCCC [Distearoylphosphatidylcholine]
